Assay results from patent publication US9624228B2, “Inhibitors of ERK and methods of use” (KURA ONCOLOGY, INC., priority 2013, dated 2017).

Target: ERK2 enzyme (Homo sapiens (Human), UniProt P28482)
Experiment: Inhibition assay of ERK (Z'-LYTE kinase assay, Ser/Thr 3 peptide substrate)
Type: biochemical
Conditions: 100 μM ATP
Procedure: The inhibition of ERK activity by the compounds disclosed herein was determined using the Z′-LYTE kinase assay kit (Life Technologies) with a Ser/Thr 3 peptide substrate (Life Technologies) according to manufacturers' instructions. […] The IC50 values for the compounds were determined with 3-fold serial dilutions in duplicate. […] The final DMSO concentration in the assay was 1%. Final reaction volume was 20 μL/well in 384-well plates. Kinase reactions were conducted or 1 hour followed by the assay development reaction (1 hour) in a 20 ul/well in a 384 well plate format.

[1] = In vitro, ERK2 enzyme 0.47 ng/μL

ERK2 enzyme, sequence (P28482 whole entry): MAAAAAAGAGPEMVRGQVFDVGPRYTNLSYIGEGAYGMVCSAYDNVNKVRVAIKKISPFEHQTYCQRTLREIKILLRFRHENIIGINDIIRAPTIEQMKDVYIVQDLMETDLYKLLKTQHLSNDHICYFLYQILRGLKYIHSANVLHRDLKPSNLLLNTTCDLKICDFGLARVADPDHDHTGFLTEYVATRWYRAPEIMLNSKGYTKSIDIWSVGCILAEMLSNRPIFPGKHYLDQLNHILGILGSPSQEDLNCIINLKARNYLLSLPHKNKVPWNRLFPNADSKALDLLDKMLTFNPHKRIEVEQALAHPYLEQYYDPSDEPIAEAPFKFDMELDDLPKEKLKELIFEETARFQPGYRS

Compound | IC50 [1] [µM] | IC50 (In vitro ERK2 enzyme) [µM]
COc1cc(-c2n[nH]c3cc4[nH]c(=O)c(C5CCCN(Cc6ccccc6)C5)cc4cc23)ccn1 (stereo not drawn) [Compound 370] | < 0.05 | 
Cc1cc(-c2n[nH]c3cc4c(cc23)CN(Cc2cccc(Cl)c2)C(=O)N4)cc(C)n1 [Compound 77] |  | < 0.05
Cc1cc(-c2n[nH]c3cc4c(cc23)CN([C@@H]2CN(CC(F)(F)F)C[C@H]2C)C(=O)N4)ccn1 (racemic) [Compound 302] | < 0.05 | 
Cc1cc(-c2n[nH]c3cc4c(cc23)CN(CC2CC2)C(=O)N4)ccn1 [Compound 258] | < 0.05 | 
COc1ncccc1CN1Cc2cc3c(-c4ccnc(C)c4)n[nH]c3cc2NC1=O [Compound 9] |  | < 0.05
Cc1cc(-c2n[nH]c3cc4c(cc23)CN(Cc2ccc(F)c(F)c2)C(=O)N4)ccn1 [Compound 13] |  | < 0.05
O=C1Nc2cc3[nH]nc(-c4cccnc4)c3cc2CN1Cc1cccc(Cl)c1 [Compound 57] |  | < 0.05
Cc1cc(-c2n[nH]c3cc4[nH]c(=O)c(C5CCCN(Cc6cc(F)ccc6F)C5)cc4cc23)ccn1 (stereo not drawn) [Compound 336] | < 0.05 | 
Cc1ncc(-c2n[nH]c3cc4c(cc23)CN(Cc2cccc(Cl)c2)C(=O)N4)cn1 [Compound 90] |  | < 0.05
Cc1cc(-c2n[nH]c3cc4[nH]c(=O)c(C5CCCN(Cc6ccccc6)C5)cc4cc23)cc(C)n1 (stereo not drawn) [Compound 360] | 0.05 to 0.25 | 
Cc1cc(-c2n[nH]c3cc4[nH]c(=O)n(CCc5ccccc5)c4cc23)ccn1 [Compound 20] |  | 0.05 to 0.25
CCC(=O)NCCN1Cc2cc3c(-c4cnc(OC)nc4)n[nH]c3cc2NC1=O [Compound 106] |  | 0.05 to 0.25
O=C1Nc2cc3[nH]nc(Br)c3cc2CN1Cc1cccc(Cl)c1 [Compound 25] |  | 0.25 to 1
O=C1Nc2cc3[nH]nc(-c4ccnnc4)c3cc2CN1[C@@H]1CN(CC(F)(F)F)C[C@H]1c1ccccc1 [Compound 340] | < 0.05 | 
Cn1cc(-c2n[nH]c3cc4c(cc23)CN([C@@H]2CN(CC(F)(F)F)C[C@H]2c2ccccc2)C(=O)N4)cn1 [Compound 352] | < 0.05 | 
Cc1cc(-c2n[nH]c3cc4[nH]c(=O)c(Cc5ccc(F)cc5)cc4cc23)ccn1 [Compound 21] |  | 0.05 to 0.25
Cc1cc(-c2n[nH]c3cc4c(cc23)CN([C@@H]2CN(C)C[C@H]2c2ccccc2)C(=O)N4)cc(C)n1 (racemic) [Compound 248] | < 0.05 | 
O=C1Nc2cc3[nH]nc(Br)c3cc2CN1Cc1ccc(F)cc1 [Compound 29] |  | 0.25 to 1
Cc1cc(-c2n[nH]c3cc4c(cc23)CN([C@H](C)c2ccc(Cl)cc2)C(=O)N4)ccn1 [Compound 16] |  | < 0.05

Compound | IC50 [1] [µM] | IC50 (In vitro ERK2 enzyme) [µM]
COc1ccc(-c2n[nH]c3cc4c(cc23)CN([C@@H]2CN(C)C[C@H]2c2ccccc2)C(=O)N4)cn1 (mixture of isomers) [Compound 353] | < 0.05 | 
Cc1cc(-c2n[nH]c3cc4c(cc23)CN(CCC2CCOCC2)C(=O)N4)ccn1 [Compound 220] | < 0.05 | 
Cc1cc(-c2n[nH]c3cc4c(cc23)CN(Cc2nccs2)C(=O)N4)ccn1 [Compound 56] |  | < 0.05
Cc1cc(-c2n[nH]c3cc4c(cc23)CN([C@@H]2CN(CC(F)(F)F)C[C@H]2c2ccccc2)C(=O)N4)cc(C)n1 [Compound 242] | 0.05 to 0.25 | 
C[C@H](c1cccc(Cl)c1)N1Cc2cc3c(-c4ccnnc4)n[nH]c3cc2NC1=O [Compound 111] |  | < 0.05
CC(c1ccccc1)c1cc2cc3c(-c4cccnc4)n[nH]c3cc2[nH]c1=O (stereo not drawn) [Compound 330] | < 0.05 | 
Cc1cc(-c2n[nH]c3cc4c(cc23)CN(Cc2ccc(F)cc2)C(=O)N4)ccn1 [Compound 30] |  | < 0.05
CC(c1ccccc1)c1cc2cc3c(N4CCN(C)CC4)n[nH]c3cc2[nH]c1=O (stereo not drawn) [Compound 358] | 0.05 to 0.25 | 
COc1ccc(CN2Cc3cc4c(-c5ccnc(C)c5)n[nH]c4cc3NC2=O)cc1 [Compound 10] |  | < 0.05
CC(c1ccccc1)c1cc2cc3c(N4CCOCC4)n[nH]c3cc2[nH]c1=O (stereo not drawn) [Compound 345] | < 0.05 | 
Cc1cc(-c2n[nH]c3cc4[nH]c(=O)n(Cc5cccc(Cl)c5)c(=O)c4cc23)ccn1 [Compound 24] |  | 0.05 to 0.25
Cc1cc(-c2n[nH]c3cc4c(cc23)CN(CCc2ccc(F)cc2)C(=O)N4)ccn1 [Compound 18] |  | < 0.05
Cc1cc(-c2n[nH]c3cc4c(cc23)CN([C@H]2CN(C)C[C@@H]2c2ccccc2)C(=O)N4)cc(C)n1 [Compound 307] | 0.05 to 0.25 | 
CC(c1ccccc1)c1cc2cc3c(-c4ccncc4)n[nH]c3cc2[nH]c1=O (stereo not drawn) [Compound 326] | < 0.05 | 
Cc1cc(-c2n[nH]c3cc4c(cc23)CN(Cc2ccc(CC#N)cc2)C(=O)N4)ccn1 [Compound 65] |  | < 0.05
COc1ncc(-c2n[nH]c3cc4c(cc23)CN(Cc2ccc(F)c(Cl)c2)C(=O)N4)cn1 [Compound 37] |  | < 0.05
Cc1cc(-c2n[nH]c3cc4[nH]c(=O)c([C@@H](C)c5ccc(F)cc5)cc4cc23)ccn1 [Compound 287] | 0.05 to 0.25 | 
Cc1ncc(-c2n[nH]c3cc4c(cc23)CN([C@@H]2CCN(CC(F)(F)F)C2)C(=O)N4)cn1 [Compound 282] | < 0.05 | 
O=C1Nc2cc3[nH]nc(-c4ccnnc4)c3cc2CN1CCc1ccc(F)cc1 [Compound 110] |  | < 0.05

Other lines, results leading:

IC50 [1] [µM] | IC50 (In vitro ERK2 enzyme) [µM] | Compound
< 0.05 |  | Cc1cc(-c2n[nH]c3cc4c(cc23)CN([C@@H]2CN(CC(F)F)C[C@H]2c2ccccc2)C(=O)N4)ccn1 (mixture of isomers) [Compound 362]
0.05 to 0.25 |  | Cc1cc(-c2n[nH]c3cc4c(cc23)CN([C@@H]2CCN(c3cccc(Cl)c3)C2)C(=O)N4)ccn1 [Compound 249]
 | 0.05 to 0.25 | Cc1cc(-c2n[nH]c3cc4c(cc23)CN([C@@H]2CCCN(CC3CC3)C2)C(=O)N4)ccn1 [Compound 62]
 | 0.05 to 0.25 | Cc1cc(-c2n[nH]c3cc4c(cc23)CN([C@@H]2CCCN(Cc3sc(C)nc3C)C2)C(=O)N4)ccn1 [Compound 195]
< 0.05 |  | Cc1cc(-c2n[nH]c3cc4c(cc23)CN(C2CCC(=O)N(Cc3ccccc3)C2)C(=O)N4)ccn1 (stereo not drawn) [Compound 232]
0.05 to 0.25 |  | Cc1cc(-c2n[nH]c3cc4c(cc23)CN([C@@H]2CN(CC(F)(F)F)C[C@H]2C2CC2)C(=O)N4)ccn1 (mixture of isomers) [Compound 319]
 | < 0.05 | Cc1cc(-c2n[nH]c3cc4c(cc23)CN([C@@H]2CCCN(Cc3cc(C)no3)C2)C(=O)N4)ccn1 [Compound 139]
 | < 0.05 | COc1cccc(F)c1CN1CCC[C@@H](N2Cc3cc4c(-c5ccnc(C)c5)n[nH]c4cc3NC2=O)C1 [Compound 144]
< 0.05 |  | Cc1cc(-c2n[nH]c3cc4c(cc23)CN([C@@H]2CCCN(C(C)C(F)(F)F)C2)C(=O)N4)ccn1 (stereo partly drawn) [Compound 216]
 | < 0.05 | Cc1cc(-c2n[nH]c3cc4c(cc23)CN([C@@H]2CCCN(Cc3ccc(F)c(Cl)c3)C2)C(=O)N4)ccn1 [Compound 134]
< 0.05 |  | CCN1C[C@@H](N2Cc3cc4c(-c5ccnc(C)c5)n[nH]c4cc3NC2=O)[C@H](c2ccccc2)C1 (racemic) [Compound 278]
 | < 0.05 | Cc1cc(-c2n[nH]c3cc4c(cc23)CN([C@@H]2CCCN(CCC(F)(F)F)C2)C(=O)N4)ccn1 [Compound 178]
 | 0.05 to 0.25 | Cc1cc(-c2n[nH]c3cc4c(cc23)CN(C2CN(CCC3CC3)C2)C(=O)N4)ccn1 [Compound 189]
 | < 0.05 | [2H]c1c([2H])c([2H])c(C([2H])([2H])N2CCC[C@@H](N3Cc4cc5c(-c6ccnc(C)c6)n[nH]c5cc4NC3=O)C2)c([2H])c1[2H] [Compound 165]
< 0.05 |  | Cc1cc(-c2n[nH]c3cc4c(cc23)CN([C@@H]2CCN(C)C2)C(=O)N4)ccn1 [Compound 255]
 | < 0.05 | O=C1Nc2cc3[nH]nc(-c4ccnnc4)c3cc2CN1[C@@H]1CCCN(Cc2ccccc2F)C1 [Compound 121]

IC50 [1] [µM] | IC50 (In vitro ERK2 enzyme) [µM] | Compound
 | < 0.05 | Cc1cc(-c2n[nH]c3cc4c(cc23)CN([C@@H]2CCCN(C(=O)c3ccccc3)C2)C(=O)N4)ccn1 [Compound 172]
< 0.05 |  | Cc1cc(-c2n[nH]c3cc4c(cc23)CN([C@@H]2CCCN(Cc3ccsc3)C2)C(=O)N4)ccn1 [Compound 252]
0.25 to 1 |  | Cc1cc(-c2n[nH]c3cc4c(cc23)CN(C2CN(CC3CC3)C2)C(=O)N4)ccn1 [Compound 198]
0.05 to 0.25 |  | Cc1cc(-c2n[nH]c3cc4c(cc23)CN([C@@H]2CCCN(C3CCCC3)C2)C(=O)N4)ccn1 [Compound 215]
 | 0.05 to 0.25 | Cc1cc(-c2n[nH]c3cc4c(cc23)CN([C@@H]2CCCN(CCC(C)(C)C)C2)C(=O)N4)ccn1 [Compound 136]
 | < 0.05 | Cc1cc(-c2n[nH]c3cc4c(cc23)CN([C@@H]2CCCN(Cc3cccc(Cl)c3)C2)C(=O)N4)ccn1 [Compound 156]
< 0.05 |  | Cc1cc(-c2n[nH]c3cc4c(cc23)CN([C@H]2CCN(Cc3ccccc3)C2)C(=O)N4)ccn1 [Compound 301]
< 0.05 |  | Cc1ccc(-c2n[nH]c3cc4c(cc23)CN([C@@H]2CCCN(Cc3ccc(F)cc3F)C2)C(=O)N4)cn1 [Compound 284]
< 0.05 |  | Cc1cc(-c2n[nH]c3cc4c(cc23)CN([C@@H]2CCCN(CC(=O)C(C)C)C2)C(=O)N4)ccn1 [Compound 209]
 | 0.05 to 0.25 | Cc1cc(-c2n[nH]c3cc4c(cc23)CN([C@@H]2CCCN(C(C)c3cccc(Cl)c3)C2)C(=O)N4)ccn1 (stereo partly drawn) [Compound 180]
 | < 0.05 | [2H]C([2H])(c1ccccc1)N1CCC[C@@H](N2Cc3cc4c(-c5ccnc(C)c5)n[nH]c4cc3NC2=O)C1 [Compound 148]
< 0.05 |  | Cc1cc(-c2n[nH]c3cc4c(cc23)CN([C@@H]2CCC[C@@H](NCc3ccccc3)C2)C(=O)N4)ccn1 [Compound 313]
 | < 0.05 | Cc1cc(-c2n[nH]c3cc4c(cc23)CN([C@@H]2CCCN(CCC3CC3)C2)C(=O)N4)ccn1 [Compound 155]
0.05 to 0.25 |  | Cc1cc(-c2n[nH]c3cc4c(cc23)CN([C@@H]2CCCN(C3CCC3)C2)C(=O)N4)ccn1 [Compound 210]
 | 0.05 to 0.25 | Cc1ccc(CN2CCC[C@@H](N3Cc4cc5c(-c6ccnc(C)c6)n[nH]c5cc4NC3=O)C2)cn1 [Compound 131]
